# Like-named read-outs stand apart in the source and are kept apart here.
# Experiments:
# [1] = tested on: 3D7 strain of Plasmodium falciparum; test: In vitro antimalarial activity, 48-h [3H]-hypoxanthine incorporation assay; type: cell-based
# Protocol: The 3D7 strain of Plasmodium falciparum was used in this study. This strain is known to be […] Parasites were maintained in continuous culture using the method of Jensen and Trager^4. […] Stock drug solutions were prepared in 100% dimethylsulphoxide (DMSO) and diluted to the appropriate concentration using complete medium. Assays were performed in sterile 96-well microlitre plates, each plate contained 200 μl of parasite culture (2% parasitemia, 0.5% haematocrit) with or without 10 μl drug dilutions. Each drug was tested in triplicate and parasite growth compared to control wells (which constituted 100% parasite growth). […] IC50 values were calculated by interpolation of the probit transformation of the log dose-response curve.
# [2] = tested on: Salmonella typhimurium TA1535/pSK1002; test: Salmonella typhimurium SOS/umu genotoxicity assay
# Description: (§1) This assay is based on the ability of DNA damaging agents to induce the expression of the umu operon. The Salmonella strains have a plasmid pSK1002 which carries an umuC-lacZ fused gene that produces a hybrid protein with β-galactosidase activity and whose expression is controlled by the umu regulatory region.
# [3] = tested on: Salmonella typhimurium NM2009; test: Salmonella typhimurium SOS/umu genotoxicity assay
# Description: as §1
# [4] = 3D7, 3D7 strain, mean of triplicate results, Table 5, read-out: Mean IC50
# [5] = 3D7, sulfonamide dispiro 1,2,4,5-tetraoxanes, Table 8, read-out: Mean IC50
Structure (SMILES),melting point,"IC50 [1, 4]",other results
"COC(=O)[C@@H](NC(=O)CC1CCC2(CC1)OOC1(OO2)C2CC3CC(C2)CC1C3)C(C)C (stereo in doubt) [Tetraoxane 29j, Adamantyl acetamide]",108 to 110 °C,,
"C[C@@H]1CC[C@H]2[C@@H](C)C(=O)O[C@@H]3O[C@@]4(C)CC[C@@H]1[C@]32OO4 [Artemisinin, reference compound]",,9.5 nM,"IC50 [1, 5]: 9.2 nM"
"O=C1CCC2(CC1)OOC1(CCCCC1)OO2 [Tetraoxane 10, 7,8,15,16-Tetraoxa-dispiro[5.2.5.2]hexadecan-3-one]",78 to 80 °C,6 nM,
"O=C1CCC2(CC1)OOC1(CCCCCCCCCCC1)OO2 [Tetraoxane 11, 7,8,21,22-Tetraoxa-dispiro[5.2.11.2]docosan-3-one]",108 to 110 °C,,
"O=C1CCC2(CC1)OOC1(OO2)C2CC3CC(C2)CC1C3 [Tetraoxane 12, adamantane tetraoxane ketone]",156 to 158 °C,,
"C1CCC2(CC1)OOC1(CCC(NC3CC3)CC1)OO2 [Tetraoxane 14, Cyclopropyl-(7,8,15,16-tetraoxa-dispiro[5.2.5.2]hexadec-3-yl)-amine]",,20 nM,
"C1CCC2(CC1)OOC1(CCC(N3CCOCC3)CC1)OO2 [Tetraoxane 19, 4-(7,8,15,16-Tetraoxa-dispiro[5.2.5.2]hexadec-3-yl)-morpholine]",,29.4 nM,
"CCOC(=O)CC1CCC2(CC1)OOC1(CCCCC1)OO2 [Tetraoxane 27a, (7,8,15,16-Tetraoxa-dispiro[5.2.5.2]hexadec-3-yl)acetic acid ethyl ester]",,24.2 nM,
"O=C(CC1CCC2(CC1)OOC1(CCCCC1)OO2)NCCN1CCCC1 [Tetraoxane 27d, N-(2-Pyrrolidin-1-yl-ethyl)-2-(7,8,15,16-tetraoxa-dispiro[5.2.5.2]-hexadec-3-yl)-acetamide]",110 to 112 °C,19.1 nM,
"O=C(CC1CCC2(CC1)OOC1(CCCCC1)OO2)NCCN1CCCCC1 [Tetraoxane 27e, N-(2-Piperidin-1-yl-ethyl)-2-(7,8,15,16-tetraoxa-dispiro[5.2.5.2]-hexadec-3-yl)-acetamide]",68 to 78 °C,19.2 nM,
"O=C(CC1CCC2(CC1)OOC1(CCCCC1)OO2)NCCN1CCOCC1 [Tetraoxane 27f, N-(2-Morpholin-4-yl-ethyl)-2-(7,8,15,16-tetraoxa-dispiro[5.2.5.2]-hexadec-3-yl)-acetamide]",,19.1 nM,
"CCN(CC)CCNC(=O)CC1CCC2(CC1)OOC1(CCCCC1)OO2 [Tetraoxane 27g, N-(2-Diethylamino-ethyl)-2-(7,8,15,16-tetraoxa-dispiro[5.2.5.2]-hexadec-3-yl)-acetamide]",,5.15 nM,
"O=C(CC1CCC2(CC1)OOC1(CCCCCCCCCCC1)OO2)NC1CC1 [Tetraoxane 28c, N-Cyclopropyl-2-(7,8,21,22-tetraoxa-dispiro[5.2.11.2]docos-3-yl)-acet-amide]",136 to 138 °C,18.7 nM,
"O=C(CC1CCC2(CC1)OOC1(CCCCCCCCCCC1)OO2)NCCN1CCCC1 [Tetraoxane 28d, N-(2-Pyrrolidin-1-yl-ethyl)-2-(7,8,21,22-tetraoxa-dispiro[5.2.11.2]do-cos-3-yl)-acetamide]",108 to 110 °C,,
"O=C(CC1CCC2(CC1)OOC1(CCCCCCCCCCC1)OO2)NCCN1CCCCC1 [Tetraoxane 28e, N-(2-Piperidin-1-yl-ethyl)-2-(7,8,21,22-tetraoxadispiro[5.2.11.2]-docos-3-yl)-acetamide]",96 to 98 °C,,
"O=C(CC1CCC2(CC1)OOC1(CCCCCCCCCCC1)OO2)NCCN1CCOCC1 [Tetraoxane 28f, N-(2-Morpholin-4-yl-ethyl)-2-(7,8,21,22-tetraoxa-dispiro[5.2.11.2]do-cos-3-yl)-acetamide]",78 to 80 °C,,
"CCN(CC)CCNC(=O)CC1CCC2(CC1)OOC1(CCCCCCCCCCC1)OO2 [Tetraoxane 28g, N-(2-Diethylamino-ethyl)-2-(7,8,21,22-tetraoxa-dispiro[5.2.11.2]-docos-3-yl)-acetamide]",64 to 66 °C,,
"O=C(CC1CCC2(CC1)OOC1(CCCCCCCCCCC1)OO2)N1CCOCC1 [Tetraoxane 28h, 1-Morpholin-4-yl-2-(7,8,21,22-tetraoxa-dispiro[5.2.11.2]docos-3-yl)-ethanone]",118 to 120 °C,23.7 nM,
"O=C(CC1CCC2(CC1)OOC1(CCCCCCCCCCC1)OO2)N1CCSCC1 [Tetraoxane 28i, 2-(7,8,21,22-Tetraoxa-dispiro[5.2.11.2]docos-3-yl)-1-thiomorpholin-4-yl-ethanone]",108 to 110 °C,26.9 nM,
O=C(CC1CCC2(CC1)OOC1(OO2)C2CC3CC(C2)CC1C3)NCCN1CCCC1 (stereo not shown) [Tetraoxane 29d],142 to 144 °C,,
"O=C(CC1CCC2(CC1)OOC1(OO2)C2CC3CC(C2)CC1C3)NCCN1CCCCC1 (stereo not shown) [Tetraoxane 29e, N-(2-Piperidin-1-yl-ethyl)-[adamantyl]acetamide]",119 to 121 °C,,

Structure (SMILES),melting point,"IC50 [1, 4]",other results
"O=C(CC1CCC2(CC1)OOC1(OO2)C2CC3CC(C2)CC1C3)N1CCSCC1 (stereo not shown) [Tetraoxane 29i, Tetraoxa-dispiro-(adamantly)-thiomorpholin-4-yl-ethanone]",150 to 152 °C,5.9 nM,
O=C(CC1CCC2(CC1)OOC1(OO2)C2CC3CC(C2)CC1C3)N1CCCCC1 (stereo not shown) [Tetraoxane 29m],,0.5 nM,
CC(C)CN1CCN(C(=O)CC2CCC3(CC2)OOC2(OO3)C3CC4CC(C3)CC2C4)CC1 (stereo not shown) [Tetraoxane 29s],,2.7 nM,
"O=C(CC1CCC2(CC1)OOC1(CCCCCCCCCCC1)OO2)N1CCS(=O)(=O)CC1 [Tetraoxane 31, 1-(1,1-Dioxo-1λ^6-thiomorpholin-4-yl)-2-(7,8,21,22-tetraoxa-dispiro[5.2.11.2]docos-3-yl)-ethanone]",170 to 172 °C,92.6 nM,
"O=C(CC1CCC2(CC1)OOC1(OO2)C2CC3CC(C2)CC1C3)N1CCS(=O)(=O)CC1 (stereo not shown) [Tetraoxane 32, 1-(1,1-Dioxo-1λ^6-thiommpholin-4-yl)-2-tetraoxa-dispiro-adamantyl ethanone]",189 to 191 °C,24.2 nM,
"O=C1CCN(C(=O)N2CCOCC2)CC1 [Tetraoxane 34f, 1-(Morpholine-4-carbonyl)-piperidin-4-one]",,,"IC50 ([1]; 3D7, read-out: Mean IC50): 4.7 nM"
"O=C(N1CCCCC1)N1CCC(OO)(OO)CC1 [Tetraoxane 34i, (4,4-dihydroperoxypiperidin-1-yl)(piperidin-1-yl)methanone]",,,"IC50 ([1]; 3D7, read-out: Mean IC50): 7.2 nM"
O=C(N1CCCCC1)N1CCC2(CC1)OOC1(CCCCC1)OO2 [Tetraoxane 34k],,,"IC50 ([1]; 3D7, read-out: Mean IC50): 7 nM"
CS(=O)(=O)N1CCC2(CC1)OOC1(OO2)C2CC3CC(C2)CC1C3 [Tetraoxane 39a],,,"IC50 [1, 5]: 10.2 nM"
CC(C)S(=O)(=O)N1CCC2(CC1)OOC1(OO2)C2CC3CC(C2)CC1C3 [Tetraoxane 39c],,,"IC50 [1, 5]: 5.87 nM"
O=S(=O)(CC(F)(F)F)N1CCC2(CC1)OOC1(OO2)C2CC3CC(C2)CC1C3 [Tetraoxane 39e],,,"IC50 [1, 5]: 14.3 nM"
O=S(=O)(c1ccc(F)cc1)N1CCC2(CC1)OOC1(OO2)C2CC3CC(C2)CC1C3 [Tetraoxane 39g],,,"IC50 [1, 5]: 16.7 nM"
O=S(=O)(c1ccc(Cl)cc1)N1CCC2(CC1)OOC1(OO2)C2CC3CC(C2)CC1C3 [Tetraoxane 39h],,,"IC50 [1, 5]: 22.7 nM"
O=S(=O)(c1ccc(C(F)(F)F)cc1)N1CCC2(CC1)OOC1(OO2)C2CC3CC(C2)CC1C3 [Tetraoxane 39i],,,"IC50 [1, 5]: 20.7 nM"
CS(=O)(=O)N1CCC2(CC1)OOC1(CCCCCCCCCCC1)OO2 [Tetraoxane 40a],,,"IC50 [1, 5]: 27.8 nM"
CCS(=O)(=O)N1CCC2(CC1)OOC1(CCCCCCCCCCC1)OO2 [Tetraoxane 40b],,,"IC50 [1, 5]: 29.1 nM"
CC(C)S(=O)(=O)N1CCC2(CC1)OOC1(CCCCCCCCCCC1)OO2 [Tetraoxane 40c],,,"IC50 [1, 5]: 86.4 nM"
O=S(=O)(c1ccccc1)N1CCC2(CC1)OOC1(CCCCCCCCCCC1)OO2 [Tetraoxane 40d],,,"IC50 [1, 5]: 131 nM"
"CCS(=O)(=O)N1C2CCC1CC1(C2)OOC2(OO1)C1CC3CC(C1)CC2C3 (stereo not shown) [Tetraoxane 41d, Tropinone derived 1,2,4,5-tetraoxane]",,,"IC50 [1, 5]: 60.6 nM"
"CC(C)(C)NCc1cc(Nc2ccnc3cc(Cl)ccc23)ccc1Cl [Tetraoxane D535, 4′Chloro N-tertbutyl amodiaquin, reference compound]",,,MCE TA1535 (Maximum Co w/o effects on bacteria growth or β-galactosidase production) [2]: 140 µM; Max. Fold Increase ([2]; −S9): 1.10 ± 0.07 fold; Potential genotox ([2]; −S9): NEG; MCE NM2009 (Maximum Co w/o effects on bacteria growth or beta-galactosidase production) [3]: 140 µM; Potential genotox [3]: NEG
